Assay results taken from paper PMC7896091, “Synthesis of novel phytol-derived γ-butyrolactones and evaluation of their biological activity” (Scientific Reports, 2021).

Tests used:
Myzus persicae = test: EPG monitoring of aphid probing and feeding (no-choice test); assay type: in vivo; settings: 8-h EPG; for Mean duration of probing (C + G + E) / Number of probes / Total duration of pathway (C) / Total duration of phloem phase (E) / Total duration of probing (C + G + E): 0.1% solution, n = 12; for Mean duration of probing (C + G + E) / Number of probes / Total duration of pathway (C) / Total duration of phloem phase (E) / Total duration of probing (C + G + E) / Number of probes before first phloem phase / Time from first probe to first phloem phase / Duration of first phloem phase / Total duration of phloem salivation E1 / Total duration of phloem sap ingestion E2 / Number of probes < 3 min: mean ± SE; for Number of probes before first phloem phase / Time from first probe to first phloem phase: activities in non-phloem tissues; for Number of probes before first phloem phase / Time from first probe to first phloem phase / Duration of first phloem phase / Total duration of phloem salivation E1 / Total duration of phloem sap ingestion E2 / Number of probes < 3 min: n = 10-12; for Duration of first phloem phase / Total duration of phloem salivation E1 / Total duration of phloem sap ingestion E2: activities in sieve elements; for Number of probes < 3 min: before first phloem phase; for Proportion of salivation in phloem phase: (duration of E1 / duration of E1 + E2)*100; for Proportion of phloem phase in total probing: index = duration of phloem phase E / duration of probing C + G + E
Experimental: The peach potato aphids Myzus persicae (Sulzer) and the Chinese cabbage Brassica rapa subsp. pekinensis (Lour.) Hanelt were reared in laboratory at 20 °C, 65% r.h., and L16:8D photoperiod. One to seven days old apterous females of M. persicae and 3-week old plants with 4–5 fully developed leaves were used for experiments. M. persicae were obtained from the laboratory culture maintained at the Department of Botany and Ecology for many generations since 2000. All experiments were carried out under the same conditions of temperature, relative humidity, and photoperiod. The bioassays were started at 10–11.a.m. Each compound was dissolved in 70% ethanol to obtain the recommended 0.1% solution[40]. All compounds were applied on the adaxial and abaxial leaf surfaces by immersing a leaf in the ethanolic solution of a given compound for 30 s.[20]. Control leaves of similar size were immersed in 70% ethanol that was used as a solvent for the studied compounds. Experiments were performed 1 h after the compounds application to allow the evaporation of the solvent. Every plant and aphid were used only once.
Aphid probing and the phloem sap uptake by M. persicae was monitored using the technique of electronic registration of aphid probing in plant tissues, known as EPG (= Electrical Penetration Graph), that is frequently employed in insect–plant relationship studies considering insects with sucking-piercing mouthparts[42]–[44]. In this experimental set-up, aphid and plant are connected to electrodes and thus made parts of an electric circuit, which is completed when the aphid inserts its stylets into the plant. Weak voltage is supplied in the circuit, and all changing electric properties are recorded as EPG waveforms that can be correlated with aphid activities and stylet position in plant tissues[45],[46]. The parameters describing aphid behaviour during probing and feeding, such as total time of probing, proportion of phloem patterns E1 and E2, number of probes, etc., are good indicators of plant suitability or interference of probing by chemical or physical factors in individual plant tissues[44]–[46]. In the present study, aphids were attached to a golden wire electrode with conductive silver paint (epgsystems. eu) and starved for 1 h prior to the experiment. Probing behaviour of 12 apterous females/studied compound and control was monitored for 8 h continuously with Giga-4 and Giga-8 DC EPG with 1 GΩ of input resistance recording equipment (EPG Systems, Wageningen, The Netherlands). Each aphid was given access to a freshly prepared plant and each aphid/plant combination was used only once. Various behavioural phases were labelled manually using the Stylet + software (www.epgsystems.eu). The following aphid behaviours were distinguished: no penetration (waveform 'np' – aphid stylets outside the plant), pathway phase—penetration of non-phloem tissues (waveforms 'ABC'), phloem phase (salivation into sieve elements, waveform ‘E1’ and ingestion of phloem sap, waveform ‘E2’), and xylem phase (ingestion of xylem sap, waveform 'G'). Waveform ‘G’ occurred rarely irrespective of the treatment. Therefore, in all calculations the xylem phase was added to the pathway phase and termed as probing in non-phloem tissues. The E1/E2 transition patterns were included in E2. Waveform patterns that were not terminated before the end of the experimental period (8 h) were not excluded from the calculations. The parameters derived from EPG recordings were analyzed according to their frequency and duration in configuration related to activities in peripheral and vascular tissues.
All statistical calculations related to data of the no-choice test were performed using StatSoft, Inc. (2014) STATISTICA (data analysis software system), version 12, www.statsoft.com. […]

A549 cells = test: Antiproliferative activity, SRB assay; assay type: cell-based, human; settings: for IC50: 72 h exposure, SRB, mean ± SD, n.a = no activity in concentration of 5, 25, 125, 625 μM; for Selectivity index SI, A549: SI = IC50 BALB/3T3 / IC50 A549
Experimental: (§1) Human biphenotypic B myelomonocytic leukemia MV4-11, human colon cancer LoVo cell line and normal mouse fibroblast BALB/3T3 cells were obtained from American Type Culture Collection (Rockville, Maryland, USA), human lung carcinoma A549 cells were obtained from European Collection of Authenticated Cell Cultures (UK). All the cell lines are being maintained at the Hirszfeld Institute of Immunology and Experimental Therapy, PAS, Wroclaw, Poland and were cultured according the procedure described before.
(§2) Cell lines were cultured according to the protocol described before. MV4-11 cells were cultured in RPMI 1640 medium (Gibco, UK) with 1.0 mM sodium pyruvate, and 10% fetal bovine serum (FBS) (all from Sigma-Aldrich, Germany). A549, LoVo and LoVo/DX cells were cultured in RPMI 1640 + Opti-MEM (1:1) (both from Gibco, UK) supplemented with 5% fetal bovine serum, 1.0 mM sodium pyruvate (LoVo and LoVo/DX cells) (all from Sigma Aldrich Germany) and 0.1 μg/mL doxorubicin chloride (Accord) (only LoVo/DX cells). BALB/3T3 cells in Dulbecco medium (IIET, Poland) supplemented with 10% fetal bovine serum (Sigma-Aldrich, Germany). All culture media were supplemented with 2 mM L-glutamine (Sigma-Aldrich, Germany), 100 units/mL penicillin, and 100 µg/mL streptomycin (both from Polfa Tarchomin S.A., Poland). All cell lines were grown at 37 °C with 5% CO2 humidified atmosphere.
(§3) The solutions of the compounds (50 mM) were prepared by dissolving the substances in DMSO (Sigma Aldrich, Germany). Then the tested compounds were diluted in culture medium to reach the final concentrations of 625, 125, 25 and 5 μM. Before adding of the tested compounds (24 h prior), the cells were plated in 96-well plates (Sarstedt, Germany) at a density of 1 × 10^4 or 0.5 × 10^4 (A549) cells per well. The assay was performed after 72 h of exposure to 625, 125, 25 and 5 μM of the tested agents. The in vitro cytotoxic effect of all agents was examined using the MTT (MV4-11) or SRB assay, described previously. The results were calculated as an IC50 (inhibitory concentration 50%) the concentration of tested agent, which is cytotoxic for 50% of the cancer cells. Each compound in each concentration was tested in triplicate in a single experiment, which was repeated 3–5 times.

LoVo cells = test: Antiproliferative activity, SRB assay; assay type: cell-based, human; settings: for IC50: 72 h exposure, SRB, mean ± SD, n.a = no activity in concentration of 5, 25, 125, 625 μM; for Selectivity index SI, LoVo: SI = IC50 BALB/3T3 / IC50 LoVo
Experimental: as §1, §2, §3

BALB/3T3 cells = test: Toxicity towards normal fibroblasts, SRB assay; assay type: cell-based; settings: 72 h exposure, mean ± SD, n.a = no activity in concentration of 5, 25, 125, 625 μM
Experimental: as §1, §2, §3

[1] = BALB/3T3, normal mouse fibroblasts

Compound	Mean duration of probing (C + G + E) (Myzus persicae)	Number of probes (Myzus persicae)	Total duration of pathway (C) (Myzus persicae)	Total duration of phloem phase (E) (Myzus persicae)	Total duration of probing (C + G + E) (Myzus persicae)	Duration of first phloem phase (Myzus persicae)	Total duration of phloem salivation E1 (Myzus persicae)	Total duration of phloem sap ingestion E2 (Myzus persicae)	Number of probes < 3 min (Myzus persicae)	Proportion of salivation in phloem phase (Myzus persicae)	Proportion of phloem phase in total probing (Myzus persicae)	Selectivity index SI, A549 (A549 cells)	Selectivity index SI, LoVo (LoVo cells)	Number of probes before first phloem phase (Myzus persicae)	Time from first probe to first phloem phase (Myzus persicae)	IC50 (BALB/3T3 cells; [1])	IC50 (A549 cells; Homo sapiens, A549)	IC50 (LoVo cells; Homo sapiens, LoVo)	also measured
3,7,11,15-tetramethylhexadec-2-en-1-ol [Phytol (1), reference compound]	0.3 ± 0.1 h	41.4 ± 7.6	4.2 ± 0.4 h	2.8 ± 0.5 h	7.1 ± 0.2 h	1.6 ± 0.5 h	8.4 ± 2.4 min	2.7 ± 0.5 h	18.8 ± 3.6	18.3%	38.4%	1.01	0.25	–	–	–	–	–	Number of probes before first phloem phase (Myzus persicae; listed as phytol): 27.0 (± 5.3); Number of probes before first phloem phase (Myzus persicae; listed as phytol (1)): 27.0 ± 5.3; Time from first probe to first phloem phase (Myzus persicae; listed as phytol (1)): 2.7 ± 0.6 h; IC50 (A549 cells): 64.1 ± 5.2 µM; IC50 (LoVo cells): 255 ± 46.5 µM; IC50 (BALB/3T3 cells; normal mouse fibroblasts): 64.5 ± 12.9 µM
CC(C)CCCC(C)CCCC(C)CCC[C@]1(C)CC(=O)O[C@@H]1CBr (stereo in doubt) [compound 4, trans-5-Bromomethyl-4-methyl-4-(4′,8′,12′-trimethyltridecyl)dihydrofuran-2-one]	0.9 ± 0.3 h	20.8 ± 5.2	2.4 ± 0.6 h	4.8 ± 0.8 h	7.4 ± 0.3 h	3.0 ± 0.9 h	1.8 ± 0.6 min	4.8 ± 0.8 h	8.5 ± 3.6	1.5%	62.9%	–	–	17.2 ± 4.8	2.7 ± 0.8 h	348 ± 27.6 µM	–	–	–
CC(C)CCCC(C)CCCC(C)CCC[C@]1(C)CC(=O)O[C@H]1CBr (stereo in doubt) [compound 5, cis-5-Bromomethyl-4-methyl-4-(4′,8′,12′-trimethyltridecyl)dihydrofuran-2-one]	0.5 ± 0.1 h	31.6 ± 9.1	2.8 ± 0.5 h	4.0 ± 0.7 h	7.1 ± 0.4 h	2.2 ± 0.8 h	2.4 ± 0.6 min	4.0 ± 0.7 h	7.1 ± 2.8	3.8%	54.0%	–	–	10.3 ± 3.1	1.4 ± 0.3 h	424 ± 140 µM	–	–	–
CC(C)CCCC(C)CCCC(C)CCC[C@]1(C)CC(=O)O[C@@H]1CCl (stereo in doubt) [compound 6, trans-5-Chloromethyl-4-methyl-4-(4′,8′,12′-trimethyltridecyl)dihydrofuran-2-one]	1.2 ± 0.7 h	42.9 ± 10.4	3.0 ± 0.5 h	3.5 ± 0.8 h	6.6 ± 0.5 h	2.0 ± 0.8 h	3.0 ± 1.2 min	3.5 ± 0.8 h	20.3 ± 7.9	9.7%	46.7%	0.72	0.93	24.9 ± 9.0	3.0 ± 0.8 h	273 ± 16.4 µM	378 ± 32.8 µM	293 ± 33.1 µM	–
CC(C)CCCC(C)CCCC(C)CCC[C@]1(C)CC(=O)O[C@H]1CCl (stereo in doubt) [compound 7, cis-5-chloromethyl-4-methyl-4-(4′,8′,12′-trimethyltridecyl)dihydrofuran-2-one]	1.0 ± 0.4 h	18.7 ± 4.6	2.5 ± 0.5 h	4.4 ± 0.8 h	7.1 ± 0.5 h	3.6 ± 0.8 h	1.2 ± 0.6 min	4.4 ± 0.8 h	9.6 ± 3.6	0.4%	56.9%	–	–	15.6 ± 4.7	3.3 ± 0.8 h	–	–	–	–
C=CC(C)(CCCC(C)CCCC(C)CCCC(C)C)CC(=O)O (stereo not drawn) [compound 3, 3,7,11,15-tetramethyl-3-vinylhexadecanoic acid]	1.6 ± 0.7 h	25.3 ± 6.7	2.9 ± 0.5 h	4.1 ± 0.8 h	7.2 ± 0.2 h	3.3 ± 0.9 h	9.0 ± 6.0 min	3.9 ± 0.8 h	10.9 ± 4.4	8.4%	52.6%	2.93	2.44	15.7 ± 5.9	2.0 ± 0.5 h	145 ± 48 µM	49.5 ± 2.9 µM	59.5 ± 1.1 µM	–
